Results on one compound are retold here after patent US20230414509A1, “HYDROPHOBIC DRUGS IN ORGANIC CORE HIGH DENSITY LIPOPROTEIN (HDL) NANOPARTICLES” (NORTHWESTERN UNIVERSITY, priority 2020, published 2023).

Data set [1] concerns HH cells (cutaneous T cell lymphoma). The data set can be described thus: Cytotoxicity IC50, MTS assay, HH cells. Particulars: Homo sapiens, 72 hours after treatment, read-out: IC-50 values (in nM), HH. In kind it is cell-based. The protocol: (§1) Specifically, the F7-loaded HDL NPs were tested for cytoxicity against two CTCL cell lines (HH and Hut78), a clear cell renal cell carcinoma cell line (786-O), an anaplastic large cell lymphoma (ALCL) cell line (SR-786), a breast adenocarcinoma cell line (MDA MB 231), a T-cell lymphoma cell line (Jurkat), a myeloma cell line (U266B1), and six prostate cancer cell lines (PC-3, Du-145, CWRR1 WT (wild-type), CWRR1 EnzR (Enzalutamide resistant), LnCap WT (wild type), and LnCap EnzR (Enzalutamide resistant)). The HH and HuT78 cell lines are SR-B1 positive and express p38γ. The SR-786, 786-O, and MDA MB 231 cell lines are also known to be SR-B1 positive. […] The PC-3 and Du-145 cell lines are SR-B1 positive, androgen receptor negative and PTEN null. The CWRR1 WT cell line is SR-B1 positive, androgen receptor positive and PTEN wild type. The CWRR1 EnzR, which is also SR-B1 positive, androgen receptor positive and PTEN wild type, is a prostate cancer cell line derived from patient with castration recurrent disease that is resistant to enzalutamide (a commonly used therapy for castration-resistant prostate cancer patients). The LnCap WT cell line is SR-B1 positive, androgen receptor positive and PTEN null. The LnCap EnzR, which is also SR-B1 positive, androgen receptor positive and PTEN null, is a prostate cancer cell line derived from a lymph node metastasis that is resistant to enzalutamide. […]
(In general: Tetrazolium dyes change colour on reduction, which living cells bring about.)

For data set [2], the system named is HuT78 cells (cutaneous T cell lymphoma). The data set can be described thus: Cytotoxicity IC50, MTS assay, HuT78 cells. It is filed as cell-based. Particulars: Homo sapiens, 72 hours after treatment, read-out: IC-50 values (in nM), HuT78. The protocol:
as §1

Data set [3] relates to SR-786 cells (anaplastic large cell lymphoma). The data set can be described thus: Cytotoxicity IC50, MTS assay, SR-786 cells. It is filed as cell-based. Particulars: 72 hours after treatment, read-out: IC-50 values (in nM), SR-786. How it is done:
as §1

Data set [4] deals with 786-O cells (clear cell renal cell carcinoma). Description: Cytotoxicity IC50, MTS assay, 786-O cells. In kind it is cell-based. Particulars: Homo sapiens, 786-0, 72 hours after treatment, read-out: IC-50 values (in nM), 786-O. The protocol:
as §1

Data set [5] deals with MDA MB 231 cells (breast adenocarcinoma). Description: Cytotoxicity IC50, MTS assay, MDA MB 231 cells. Particulars: Homo sapiens, 72 hours after treatment, read-out: IC-50 values (in nM), MDA MB 231. In kind it is cell-based. The protocol:
as §1

Data set [6] relates to Jurkat cells (T-cell lymphoma). The data set can be described thus: Cytotoxicity IC50, MTS assay, Jurkat cells. In kind it is cell-based. Particulars: Homo sapiens, Jurkat cells (SR-B1 negative), 72 hours after treatment, read-out: IC-50 values (in nM), Jurkat. The protocol: as §1
The subject of data set [7] is U266B1 cells (myeloma). The data set can be described thus: Cytotoxicity IC50, MTS assay, U266B1 cells. It is filed as cell-based. Particulars: U266B1 cells (SR-B1 negative), 72 hours after treatment, read-out: IC-50 values (in nM), U266B1. How it is done: as §1
Data set [8] relates to PC-3 cells (prostate cancer). Description: Cytotoxicity IC50, MTS assay, PC-3 cells. In kind it is cell-based. Particulars: Homo sapiens, 72 hours after treatment, read-out: IC-50 values (in nM), PC-3. How it is done: as §1
For data set [9], the system named is Du-145 cells (prostate cancer). Description: Cytotoxicity IC50, MTS assay, Du-145 cells. In kind it is cell-based. Particulars: Homo sapiens, 72 hours after treatment, read-out: IC-50 values (in nM), Du-145. The protocol:
as §1

Data set [10] relates to CWRR1 WT cells (prostate cancer). The data set can be described thus: Cytotoxicity IC50, MTS assay, CWRR1 WT cells. In kind it is cell-based. Particulars: 72 hours after treatment, read-out: IC-50 values (in nM), CWRR1 WT. The protocol: as §1
Data set [11] deals with CWRR1 EnzR cells (prostate cancer, Enzalutamide resistant). Description: Cytotoxicity IC50, MTS assay, CWRR1 EnzR cells. In kind it is cell-based. Particulars: 72 hours after treatment, read-out: IC-50 values (in nM), CWRR1 EnzR. The protocol: as §1
The test system of data set [12] is LnCap WT cells (prostate cancer). The data set can be described thus: Cytotoxicity IC50, MTS assay, LnCap WT cells. In kind it is cell-based. Particulars: Homo sapiens, 72 hours after treatment, read-out: IC-50 values (in nM), LnCap WT. How it is done:
as §1

Data set [13] relates to LnCap EnzR cells (prostate cancer, Enzalutamide resistant). Description: Cytotoxicity IC50, MTS assay, LnCap EnzR cells. It is filed as cell-based. Particulars: Homo sapiens, 72 hours after treatment, read-out: IC-50 values (in nM), LnCap EnzR. The protocol:
as §1

For data set [14], the system named is Hut78 cells. The data set can be described thus: Cytotoxic impact of F7 on Hut78 cells (screening). In kind it is cell-based. Particulars: Homo sapiens. An excerpt: Cutaneous T cell lymphoma (CTCL) is a disfiguring and aggressive cancer. For patients with advanced disease, current therapies are inadequate, and outcome is poor. Incomplete understanding of CTCL molecular regulators has limited development of effective targeted therapies. One candidate regulator is p38gamma (p38γ), a mitogen-activated protein kinase downstream from the T cell receptor that is crucial for T cell activity and growth. […] In addition, only p38γ has been identified as essential protein for CTCL growth among the four p38 isoforms by gene knockdown experiments, which makes p38γ an ideal target for the therapeutic drug development in this particular T cell lymphoma.

The subject of data set [15] is 780 cells (renal cancer). The data set can be described thus: Cytotoxicity IC50 in renal cancer cell line 780. In kind it is cell-based. How it is done:
(§2) A database analysis was performed and a survival curve for the renal cancer was found showing a separation (p=0.000084) among summarized 877 renal cancer patients by p38γ gene expression level (high vs low). […] All 8 renal cancer cell lines have higher p38γ protein expression level than that of normal HK2 renal cells by western blot experiments (FIG. 3B).

Data set [16] relates to ACHN cells (renal cancer). Description: Cytotoxicity IC50 in renal cancer cell line ACHN. In kind it is cell-based. Particulars: Homo sapiens. The protocol: as §2
For data set [17], the system named is HH cell line (SR-B1 positive). Description: 2 hr pulse treatment, MTS viability, SR-B1 positive HH cell line. In kind it is cell-based. Particulars: free F7 250 nM or 2.5 μM for 2 hrs, washed, 72 hours, MTS assay. The protocol: (§3) Following treatment, the cells were washed with fresh media and plated into 96-well plates. The cells were then incubated for 72 hours prior to viability assay (MTS assay).

Data set [18] deals with U266B1 cell line (SR-B1 negative). Description: 2 hr pulse treatment, MTS viability, SR-B1 negative U266B1 cell line. It is filed as cell-based. Particulars: free F7 250 nM or 2.5 μM for 2 hrs, washed, 72 hours, MTS assay. How it is done:
as §3

Data set [19] relates to HepG2 cells. Description: Cell-based toxicity screen, HepG2 cells, MTS viability. Particulars: F7 1 μM for 2 hrs, washed, 72 hours, MTS assay.

`Cc1ccc([N+](=O)[O-])cc1S(=O)(=O)N(C)/N=C/c1cnc2ccc(Br)cn12.Cl` [F7, PIK75]: the IC50 in [1] was determined as 41.3 nM; in data set [2], 45.6 nM; in [3], 12.6 nM; in [4] it was 283 nM; in [5], 688 nM; in data set [6], 116 nM. For the same compound, the IC50 in data set [7] amounted to 44.1 nM; in [8], 28.1 nM; in [9], 84.7 nM; in data set [10], 15.9 nM; in data set [11], 24.7 nM; in [12], 53 nM. The IC50 in data set [13] worked out at 75.5 nM; in data set [14], 33 nM; in [15] it was 33 nM; in data set [16], 17 nM. The “cytotoxicity, HH cell line, free F7” value in data set [17] is listed as “unable to cause cytotoxicity”. Besides, the “cytotoxicity, U266B1 cell line, free F7” value in data set [18] is given as “unable to cause cytotoxicity”. Further, the “cytotoxicity, HepG2 cells, free F7” value in data set [19] is reported as “mild levels of cytotoxicity”.
